From US7262151B2, “Methods and compositions for production of lipo-chito oligosaccharides by rhizobacteria” (McGill University, priority 2001, dated 2007)
Like-named read-outs stand apart in the source and are kept apart here.

Tests used:
Format in all cases: cell-based
[1] = test system: nod genes in Bradyrhizobium japonicum strain USDA31; assay: nod gene induction, β-galactosidase assay, strain USDA31 (GG1)
Experimental: (§1) Bacteria were grown in yeast extract mannitol (YEM) medium (mannitol 10.0 g, K2HPO4 0.5 g, MgSO4.7H2O 0.2 g, NaCl 0.1 g, and yeast extract 0.4 g dissolved in 1000 mL of dd H2O). In order to ensure the maintenance of the strains, tetracycline was added to the bacterial cultures at a concentration of 20 mg 1^−1. One hundred mL cultures of each strain, in 250 mL flasks, were shaken at 150 rev min^−1 at 30° C. for 3-5 days and then subcultured into 400 mL of fresh medium in 1000 mL flasks. The cultures were incubated until the OD620 reached 0.2-0.3. The cultures were then divided into 5 mL tubes (sterilized).
(§2) Stock solutions of various inducers: genistein, salicylic acid and acetylsalicylic acid made in methanol and linolenic, linoleic, and jasmonic acid and methyl jasmonate were made in ethanol, and an appropriate amount of these inducers was added into the tubes before addition of bacterial culture. In the tubes, the final concentration of all the inducers was maintained as 5, 10, 25, 50 and 100 μM. Tubes were collected after 18 h of incubation and stored at −20° C. until the β-galactosidase activity was measured. Genistein (4′,5,7, trihydroxyisoflavone, purity 98%,), linolenic acid (9,12,15-Octadecatrienoic acid, purity 99%), linoleic acid (cis-9, cis-12-Octadecadienoic acid, purity 99%), jasmonic acid (±Jasmonic acid, C12H18O3) and salicylic acid (2-hydroxybenzoic acid, purity 99.0%) were obtained from Sigma, while acetylsalicylic acid (C9H8O4, 99% purity) was obtained from Acros and methyl jasmonate (95% purity) was obtained from Aldrich Chemical Company, Inc.
(§3) β-galactosidase is an enzyme which hydrolyzes β-D-galactosides. The activity of this enzyme can easily be measured with colorless substrates, which upon hydrolysis produce colored products. O-nitrophenyl-β-galactoside (ONPG) is a colorless compound and is converted to galactose and O-nitrophenol in the presence of β-galactosidase. The O-nitrophenol is yellow and can be measured by its absorption at 420 nm. In the present study, nod gene expression was indirectly measured by β-galactosidase activity following the method of Miller (1972) as modified by Stachel et al, (1985). Briefly, 0.5 mL culture was mixed with 2×Z buffer (Na2HPO4.7H2O, 16.1 g, NaH2PO4.H2O, 5.5 g, KCl 0.75 g, MgSO4.7H2O 0.246 g, β-mercaptoethanol 2.7 g, pH 7.0 dissolved in 500 mL water) and 40 μL toluene and vortexed for 10 seconds. The culture was then incubated in a water bath at 37° C. for 30 minutes and then 0.2 mL of O-nitrophenyl β-D-galactopyranoside (ONPG) was added at a concentration of 4 mg mL^−1. The cultures were incubated again in the water bath until the color of the culture changed. The reaction time was recorded and the reaction was stopped with 1M Na2CO3. After centrifugation at 10,000 rpm for 4 minutes, spectrophotometric reading at OD420 and OD600 were taken and the β-galactosidase activity was measured (β-galactosidase activity=OD420*1000/OD600*T*V, where T is the reaction time and V is the volume of the bacterial culture used for enzyme assay).
(§4) The effect of 0-100 μM concentrations of each of acetylsalicylic acid, salicylic acid, jasmonic acid, methyl jasmonate, and genistein, on induction of nod gene expression in Bradyrhizobium japonicum strains USDA31, USDA76, USDA121, and USDA3, was evaluated in accordance with the β-galactosidase assay of Experiment 1 in Example 1 above.

[2] = test system: nod genes in Bradyrhizobium japonicum strain USDA3; settings: for inhibitory or inducing activity in combinations (β-galactosidase assay): 25 and 50 μM with JA, MeJA and genistein (5 μM), FIGS. 3, 4, and 5; for nod gene induction (β-galactosidase activity): USDA3 (GG4), control 362 ± 25; for induction of nod genes (β-galactosidase activity vs control without inducer), in words: all concentrations, FIG. 1; for expression of nod genes (β-galactosidase assay), in words: 5-100 μM tested, FIG. 6; for nod gene induction at optimum concentration compared with optimum JA and MeJA concentrations / optimum concentration for nod gene induction: USDA3, β-galactosidase assay
Experimental: Bradyrhizobium japonicum strain USDA3, harboring plasmid GG4, was used in the experiment. Plasmid GG4 contains a translational fusion between B. japonicum nod Y open-reading frame and lac Z of Escherichia coli.
as §1, §2, §3
The experiment was designed in a randomized complete block design (RCBD) with three replicates. […] Data are shown from the second experiment. Statistical analysis of the data was done with analysis of variance using the Statistical Analysis System computer package (SAS Institute, 1988). Comparisons among treatment means were made with an ANOVA protected LSD at the 0.05 level of statistical significance.

[3] = test system: nod genes in Bradyrhizobium japonicum strain USDA121; assay: nod gene induction, β-galactosidase assay, strain USDA121 (GG3); settings: control 476.8 ± 86.6
Experimental: as §1, §2, §3, §4

[4] = test system: nod genes in Bradyrhizobium japonicum strain USDA76; assay: nod gene induction, β-galactosidase assay, strain USDA 76 (GG2); settings: control 411.8 ± 26.8
Experimental: as §1, §2, §3, §4

[5] = 5 μM, control without inducer 522.6 ± 15.9

With `CC(=O)Oc1ccccc1C(=O)O` [ASA, acetylsalicylic acid] the “nod gene induction (β-galactosidase activity)” value [1, 5] was 636.5 ± 66.9, the “nod gene induction (β-galactosidase activity)” value ([1]; 10 μM, control 522.6 ± 15.9) was 563.3 ± 37.9 and the “nod gene induction (β-galactosidase activity)” value ([1]; 25 μM, control 522.6 ± 15.9) was 719.5 ± 75.2. For the same molecule, the “nod gene induction (β-galactosidase activity)” value ([1]; 50 μM, control 522.6 ± 15.9) was 676.6 ± 85.8, the “nod gene induction (β-galactosidase activity)” value ([1]; 100 μM, control 522.6 ± 15.9) was 384.8 ± 34.4 and the “inhibitory or inducing activity in combinations (β-galactosidase assay)” value [2] was “did not show inhibitory or inducing activity”. For the same molecule, the “nod gene induction (β-galactosidase activity)” value ([2]; 5 μM) was 396 ± 14.7, the “nod gene induction (β-galactosidase activity)” value ([2]; 10 μM) was 372 ± 16 and the “nod gene induction (β-galactosidase activity)” value ([2]; 25 μM) was 382 ± 16. The “nod gene induction (β-galactosidase activity)” value ([2]; 50 μM) was 464 ± 7, the “nod gene induction (β-galactosidase activity)” value ([2]; 100 μM) was 527 ± 36 and the “induction of nod genes (β-galactosidase activity vs control without inducer), in words” value [2] was “did not show any activity”. The “nod gene induction (β-galactosidase activity)” value ([3]; 5 μM) was 422.6 ± 64.9, the “nod gene induction (β-galactosidase activity)” value ([3]; 10 μM) was 425 ± 39.4 and the “nod gene induction (β-galactosidase activity)” value ([3]; 25 μM) was 479.9 ± 88.6. For the same molecule, the “nod gene induction (β-galactosidase activity)” value ([3]; 50 μM) was 445.4 ± 99, the “nod gene induction (β-galactosidase activity)” value ([3]; 100 μM) was 325.6 ± 58.8 and the “nod gene induction (β-galactosidase activity)” value ([4]; 5 μM) was 363.2 ± 34.1. For the same molecule, the “nod gene induction (β-galactosidase activity)” value ([4]; 10 μM) was 341 ± 21.1, the “nod gene induction (β-galactosidase activity)” value ([4]; 25 μM) was 418.8 ± 59.5 and the “nod gene induction (β-galactosidase activity)” value ([4]; 50 μM) was 376.2 ± 37.2. The “nod gene induction (β-galactosidase activity)” value ([4]; 100 μM) was 413.1 ± 85.5.
In the case of `O=C(O)c1ccccc1O` [SA, 2-hydroxybenzoic acid], the “nod gene induction (β-galactosidase activity)” value [1, 5] is reported as 587 ± 66.6, the “nod gene induction (β-galactosidase activity)” value ([1]; 10 μM, control 522.6 ± 15.9) is reported as 536.4 ± 40.1 and the “nod gene induction (β-galactosidase activity)” value ([1]; 25 μM, control 522.6 ± 15.9) is reported as 522.4 ± 65.3. The “nod gene induction (β-galactosidase activity)” value ([1]; 50 μM, control 522.6 ± 15.9) was 476.1 ± 28.4, the “nod gene induction (β-galactosidase activity)” value ([1]; 100 μM, control 522.6 ± 15.9) was 519.3 ± 43.5 and the “inhibitory or inducing activity in combinations (β-galactosidase assay)” value [2] was “did not show inhibitory or inducing activity”. The “nod gene induction (β-galactosidase activity)” value ([2]; 5 μM) was 398 ± 13, the “nod gene induction (β-galactosidase activity)” value ([2]; 10 μM) was 402 ± 33 and the “nod gene induction (β-galactosidase activity)” value ([2]; 25 μM) was 414 ± 17. The “nod gene induction (β-galactosidase activity)” value ([2]; 50 μM) was 435 ± 26, the “nod gene induction (β-galactosidase activity)” value ([2]; 100 μM) was 515 ± 583 and the “induction of nod genes (β-galactosidase activity vs control without inducer), in words” value [2] was “did not show any activity”. The “nod gene induction (β-galactosidase activity)” value ([3]; 5 μM) was 404.1 ± 62.5, the “nod gene induction (β-galactosidase activity)” value ([3]; 10 μM) was 472.7 ± 54.3 and the “nod gene induction (β-galactosidase activity)” value ([3]; 25 μM) was 435.8 ± 69.2. The “nod gene induction (β-galactosidase activity)” value ([3]; 50 μM) was 434.2 ± 26.3, the “nod gene induction (β-galactosidase activity)” value ([3]; 100 μM) was 369.8 ± 114.9 and the “nod gene induction (β-galactosidase activity)” value ([4]; 5 μM) was 562.2 ± 26.6. For the same molecule, the “nod gene induction (β-galactosidase activity)” value ([4]; 10 μM) was 411.8 ± 75.3, the “nod gene induction (β-galactosidase activity)” value ([4]; 25 μM) was 473 ± 58.3 and the “nod gene induction (β-galactosidase activity)” value ([4]; 50 μM) was 464.6 ± 36.2. The “nod gene induction (β-galactosidase activity)” value ([4]; 100 μM) was 430.7 ± 55.3.
In the case of `CCCCC/C=C\C/C=C\CCCCCCCC(=O)O` [linoleic acid, (Z,Z)-9,12-Octadecadienoic acid], the “expression of nod genes (β-galactosidase assay), in words” value [2] is reported as “induced the expression of nod genes”, the “nod gene induction at optimum concentration compared with optimum JA and MeJA concentrations” value [2] is reported as “lower” and the “optimum concentration for nod gene induction” value [2] is reported as 50 µM.
For `CC/C=C\C/C=C\C/C=C\CCCCCCCC(=O)O` [linolenic acid, (Z,Z,Z)-9,12,15-Octadecatrienoic acid], the “expression of nod genes (β-galactosidase assay), in words” value [2] was “induced the expression of nod genes”, the “nod gene induction at optimum concentration compared with optimum JA and MeJA concentrations” value [2] was “lower” and the “optimum concentration for nod gene induction” value [2] was 50 µM.
